In PubChem BioAssay AID248 (DTP/NCI, 2004):
Values joined by “and” are separate entries in the source; they are usually repeats but may differ in a detail not shown here. Equal entries are not always repeated. Inconclusive results and toxic doses are left out.

System: L1210 leukemia ip in BDF1 mice, survival T/C
Test: NCI In Vivo Anticancer Drug Screen. Data for tumor model L1210 Leukemia (intraperitoneal) in B6D2F1 (BDF1) mice
Details: higher = longer survival
Procedure, shortened: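 Antitumor effect is assessed in tumor-bearing animals. Survival in the compound arm is compared with a vehicle-dosed control arm and expressed as their quotient.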

[1] = endpoint: mean survival time, dose: 100.0 mg/kg/injection, schedule: Q01DX009 (ip), vehicle: saline
[2] = endpoint: mean survival time, dose: 100.0 mg/kg/injection, schedule: Q04DX003 (ip), vehicle: saline
[3] = endpoint: mean survival time, dose: 200.0 mg/kg/injection, schedule: Q01DX009 (ip), vehicle: saline
[4] = endpoint: mean survival time, dose: 200.0 mg/kg/injection, schedule: Q04DX003 (ip), vehicle: saline
[5] = endpoint: mean survival time, dose: 400.0 mg/kg/injection, schedule: Q01DX009 (ip), vehicle: saline
[6] = endpoint: mean survival time, dose: 200.0 mg/kg/injection, schedule: Q04DX002 (ip), vehicle: saline with Tween-80
[7] = endpoint: mean survival time, dose: 100.0 mg/kg/injection, schedule: Q04DX002 (ip), vehicle: saline with Tween-80
[8] = endpoint: mean survival time, dose: 400.0 mg/kg/injection, schedule: Q04DX002 (ip), vehicle: saline with Tween-80
[9] = endpoint: mean survival time, dose: 100.0 mg/kg/injection, schedule: Q04DX003 (ip), vehicle: saline with Tween-80
[10] = endpoint: mean survival time, dose: 200.0 mg/kg/injection, schedule: Q04DX003 (ip), vehicle: saline with Tween-80
[11] = endpoint: mean survival time, dose: 400.0 mg/kg/injection, schedule: Q04DX003 (ip), vehicle: saline with Tween-80
[12] = endpoint: mean survival time, dose: 100.0 mg/kg/injection, schedule: Q01DX001 (ip), vehicle: saline with Tween-80
[13] = endpoint: mean survival time, dose: 200.0 mg/kg/injection, schedule: Q01DX001 (ip), vehicle: saline with Tween-80

For `COC(=O)C(C)CN1CC(C)OC(C)C1` (stereo not given), the T/C [1] was 95 % of control, the T/C [2] was 102 % of control and the T/C [3] was 97 % of control. For the same compound, the T/C [4] was 98 % of control, the T/C [5] was 95 % of control and the T/C (endpoint: mean survival time, dose: 400.0 mg/kg/injection, schedule: Q04DX003 (ip), vehicle: saline) was 104 % of control.
For `CCC[N+]1(C)CCOCC1`, the T/C (endpoint: mean survival time, dose: 75.0 mg/kg/injection, schedule: Q01DX001 (ip), vehicle: saline) was 94 % of control and 89 % of control.
`OCCOCC12c3ccccc3C3C(c4ccccc41)C32` (stereo not given) was tested, and the T/C (endpoint: mean survival time, dose: 50.0 mg/kg/injection, schedule: Q04DX002 (ip), vehicle: saline with Tween-80) was 90 % of control and the T/C [6] was 96 % of control.
For `COc1ccc(Cc2nccc3c(OC)c(OC)ccc23)cc1OC`, the T/C (endpoint: mean survival time, dose: 25.0 mg/kg/injection, schedule: Q01DX009 (ip), vehicle: saline) was 98 % of control, the T/C (endpoint: mean survival time, dose: 25.0 mg/kg/injection, schedule: Q04DX003 (ip), vehicle: saline) was 107 % of control and the T/C (endpoint: mean survival time, dose: 50.0 mg/kg/injection, schedule: Q01DX009 (ip), vehicle: saline) was 102 % of control. For the same compound, the T/C (endpoint: mean survival time, dose: 50.0 mg/kg/injection, schedule: Q04DX003 (ip), vehicle: saline) was 93 % of control, the T/C [1] was 93 % of control and the T/C [2] was 96 % of control and 103 % of control. The T/C [4] was 86 % of control.
`CCOC(=O)C1CC1(C)c1ccccc1` (stereo not given) was tested, and the T/C [7] was 97 % of control, the T/C [6] was 93 % of control and the T/C [8] was 90 % of control.
For `COc1cc(/C=N\NC(=S)Nc2ccc(S(=O)(=O)N3CCCCC3)cc2)cc(OC)c1OC`, the T/C [7] was 98 % of control, the T/C [6] was 103 % of control and the T/C [8] was 90 % of control.
With `COc1ccc(CCNC(=O)/C=C\C(=O)O)cc1OC` the T/C [9] was 100 % of control, the T/C [10] was 98 % of control and the T/C [11] was 96 % of control.
With `CN1CN(c2ccccc2)C2(CCN(Cc3nc4ccc(Cl)cc4[nH]3)CC2)C1=O` the T/C (endpoint: mean survival time, dose: 100.0 mg/kg/injection, schedule: Q01DX001 (ip), vehicle: Klucel (hydroxypropylcellulose) (HPC)) was 101 % of control, the T/C (endpoint: mean survival time, dose: 200.0 mg/kg/injection, schedule: Q01DX001 (ip), vehicle: Klucel (hydroxypropylcellulose) (HPC)) was 93 % of control and the T/C (endpoint: mean survival time, dose: 400.0 mg/kg/injection, schedule: Q01DX001 (ip), vehicle: Klucel (hydroxypropylcellulose) (HPC)) was 91 % of control.
`CCCCCC(C)O[Si](C)c1cccc(C)c1` (stereo not given) was tested, and the T/C [9] was 107 % of control, the T/C [10] was 98 % of control and the T/C [11] was 102 % of control.
With `COc1ccc2c(c1C)C(=O)c1ccccc1C2` the T/C [12] was 93 % of control, the T/C [13] was 101 % of control and the T/C (endpoint: mean survival time, dose: 400.0 mg/kg/injection, schedule: Q01DX001 (ip), vehicle: saline with Tween-80) was 90 % of control.
In the case of `CCOC(=O)CN1C(=O)CN=C(c2ccccn2)c2cc(Cl)ccc21`, the T/C (endpoint: mean survival time, dose: 100.0 mg/kg/injection, schedule: Q01DX009 (ip), vehicle: saline with Tween-80) is reported as 91 % of control and the T/C (endpoint: mean survival time, dose: 200.0 mg/kg/injection, schedule: Q01DX009 (ip), vehicle: saline with Tween-80) is reported as 93 % of control.
For `Cc1ccccc1C(O)C(Cl)(Cl)Cl` (stereo not given), the T/C (endpoint: median survival time, dose: 50.0 mg/kg/injection, schedule: Q04DX003 (ip), vehicle: Klucel (hydroxypropylcellulose) (HPC)) was 118 % of control, the T/C (endpoint: median survival time, dose: 200.0 mg/kg/injection, schedule: Q04DX003 (ip), vehicle: Klucel (hydroxypropylcellulose) (HPC)) was 157 % of control and the T/C (endpoint: median survival time, dose: 400.0 mg/kg/injection, schedule: Q04DX003 (ip), vehicle: Klucel (hydroxypropylcellulose) (HPC)) was 204 % of control.
With `CCCCCCCCCC(C)CCCC` (stereo not given) the T/C [12] was 86 % of control and the T/C [13] was 96 % of control.
In the case of `Cc1onc(-c2ccccc2Cl)c1C(=O)NC(N)=S`, the T/C [1] is reported as 103 % of control, the T/C [3] is reported as 101 % of control and the T/C [5] is reported as 104 % of control.
For `COc1cc(C=Nc2ccc3c(c2)nc(C)n3C)ccc1N(CCCl)CCCl`, the T/C (endpoint: mean survival time, dose: 100.0 mg/kg/injection, schedule: Q04DX002 (ip), vehicle: Klucel (hydroxypropylcellulose) (HPC)) was 165 % of control, the T/C (endpoint: mean survival time, dose: 200.0 mg/kg/injection, schedule: Q04DX002 (ip), vehicle: Klucel (hydroxypropylcellulose) (HPC)) was 120 % of control and the T/C (endpoint: mean survival time, dose: 400.0 mg/kg/injection, schedule: Q04DX002 (ip), vehicle: Klucel (hydroxypropylcellulose) (HPC)) was 89 % of control.
With `CC(C)CNC(=O)Cc1ccc(N(CCCl)CCCl)cc1` the T/C (endpoint: mean survival time, dose: 100.0 mg/kg/injection, schedule: Q04DX003 (ip), vehicle: Klucel (hydroxypropylcellulose) (HPC)) was 108 % of control, the T/C (endpoint: mean survival time, dose: 200.0 mg/kg/injection, schedule: Q04DX003 (ip), vehicle: Klucel (hydroxypropylcellulose) (HPC)) was 108 % of control and the T/C (endpoint: mean survival time, dose: 400.0 mg/kg/injection, schedule: Q04DX003 (ip), vehicle: Klucel (hydroxypropylcellulose) (HPC)) was 112 % of control.
